The record followed here is ChEMBL document CHEMBL4483862, “Open-source discovery of chemical leads for next-generation chemoprotective antimalarials” (2018).

The subject of the test is Plasmodium berghei. Put plainly: Luciferase/luciferin-expressing antifolate-resistant parasites were used to infect a culture of HepG2 cells that were pre-incubated with compounds. Infected hepatocytes emit light due to the luciferase reaction. Assay results are presented as the percent inhibition of light emission compared to control. […]. As to conditions: sporozoite; for IC90: read-out: LUCIFERASE INFECTION ASSAY - IC90. Format: functional.

Where [1] appears, read: read-out: LUCIFERASE INFECTION ASSAY - IC50.

Regarding `Cc1c(Cl)cnc(NC(=O)CSc2nnc(-c3ccccc3)o2)c1Cl`, the IC90 was 2.88 µM. For the same molecule, the IC50 (FFLUC_HILL_SLOPE 2.78, FFLUC_R_SQUARED 0.409, HEPG2TOX_HILL_SLOPE 3.93, HEPG2TOX_R_SQUARED 0.284, PBLUC_HILL_SLOPE 2.91, PBLUC_R_SQUARED 0.621, read-out: LUCIFERASE INFECTION ASSAY - IC50) was determined as 1.35 µM.

Take `COc1ccccc1NCC(=O)N/N=C/c1cc(C)c2cc(C(C)C)ccc(C)c1-2`: the IC90 was greater than 10 µM. In addition, the IC50 under setting [1] is greater than 10 µM.

Turning to `COc1ccc(-c2ccc(C=C(C#N)C#N)s2)cc1`, the IC90 came to 0.914 µM. Moreover, the IC50 under setting [1] is 0.403 µM.

`CCN(CC)c1ccc(NC(=O)c2cccc(N3C(=O)c4ccccc4C3=O)c2)cc1S(=O)(=O)Nc1ccccc1OC`: the IC90 is greater than 10 µM. In addition, where the note is “FFLUC_HILL_SLOPE 15.4, FFLUC_R_SQUARED 0.773, PBLUC_HILL_SLOPE 13.2, PBLUC_R_SQUARED 0.21, read-out: LUCIFERASE INFECTION ASSAY - IC50”, the IC50 came out at 9.38 µM.

As for `CCNC(=O)c1cccc(Nc2ccc(C(=O)c3ccccc3)cc2)c1`, the IC90 is 8.6 µM. Also, the IC50 (PBLUC_HILL_SLOPE 4.36, PBLUC_R_SQUARED 0.612, read-out: LUCIFERASE INFECTION ASSAY - IC50) turned out to be 5.2 µM.

For `O=C(CN(Cc1ccco1)S(=O)(=O)c1ccccc1F)Nc1ccc(SC(F)F)cc1`, the IC90 is greater than 10 µM. For the same molecule, where the note is “PBLUC_HILL_SLOPE 1.6, PBLUC_R_SQUARED 0.718, read-out: LUCIFERASE INFECTION ASSAY - IC50”, the IC50 was determined as 3.47 µM.

In the case of `COc1cccc(C(=O)OCC(=O)c2c[nH]c3ccccc23)c1O`, the IC90 is greater than 10 µM. The IC50 under setting [1] was greater than 10 µM.

As to `O=C1C=CC(=O)N1c1ccc(F)c(Cl)c1`, the IC90 is greater than 14.6 µM. Besides, the 50% inhibitory concentration (IC50) (FFLUC_HILL_SLOPE 2.09, FFLUC_R_SQUARED 0.475, HEPG2TOX_HILL_SLOPE 6.94, HEPG2TOX_R_SQUARED 0.217, PBLUC_HILL_SLOPE 8.9, PBLUC_R_SQUARED 0.496, read-out: LUCIFERASE INFECTION ASSAY - IC50) was found to be 13.6 µM.

On to `COc1ccc(-c2cnc3ccc(-c4cccc(F)c4)nn23)cc1OC`, for which the IC90 worked out at 1.27 µM. Moreover, the IC50 (HEPG2TOX_HILL_SLOPE 3.03, HEPG2TOX_R_SQUARED 0.965, PBLUC_HILL_SLOPE 7.81, PBLUC_R_SQUARED 0.531, read-out: LUCIFERASE INFECTION ASSAY - IC50) stood at 0.958 µM.

With `C/N=c1\scc(-c2cc3ccccc3o2)n1/N=C/c1cccc(O)c1O`, the 90% effect concentration (IC90) is greater than 10 µM. Moreover, under setting [1], the IC50 is greater than 10 µM.

As for `CNC(=O)c1cccc(-c2ccc3ncc(-c4cccc(OC(F)(F)F)c4)n3n2)c1`, the IC90 amounted to 4.88 µM. For the same molecule, the IC50 (PBLUC_HILL_SLOPE 8.51, PBLUC_R_SQUARED 0.256, read-out: LUCIFERASE INFECTION ASSAY - IC50) was 3.77 µM.

On to `CCc1sc2nc(SCc3cc(=O)n4cc(Br)ccc4n3)n(-c3cccc(OC)c3)c(=O)c2c1C`, for which the IC90 is greater than 10 µM. Further, the IC50 under setting [1] is greater than 10 µM.

Regarding `CCN(CC(O)COc1ccccc1-c1ccccc1)C1CCCCC1` (centres undefined), the IC90 came to 9.13 µM. Further, the IC50 (HEPG2TOX_HILL_SLOPE 6.72, HEPG2TOX_R_SQUARED 0.0493, PBLUC_HILL_SLOPE 495, PBLUC_R_SQUARED 0.169, read-out: LUCIFERASE INFECTION ASSAY - IC50) was determined as 9.09 µM.

In the case of `O=C(CN1CCN(c2cccc(Cl)c2)CC1)Nc1cc(C2CC2)nn1-c1ccccc1`, the IC90 was greater than 10 µM. For the same molecule, where the note is “PBLUC_HILL_SLOPE 3.16, PBLUC_R_SQUARED 0.0582, read-out: LUCIFERASE INFECTION ASSAY - IC50”, the IC50 came out at 6.87 µM.

Consider `O=C(NNc1cc(C(F)(F)F)nc2ccccc12)Nc1ccc(Cl)cc1`, for which the IC90 is greater than 8.67 µM. Further, the IC50 under setting [1] is greater than 8.67 µM.

`C#CCSc1nc2ccc(Cl)cc2c(=O)n1-c1cc(OC(C)C)c(Cl)cc1Cl`: the IC90 is greater than 7.27 µM. Further, the IC50 (FFLUC_HILL_SLOPE 5.89, FFLUC_R_SQUARED 0.859, HEPG2TOX_HILL_SLOPE 0.407, HEPG2TOX_R_SQUARED 0.572, PBLUC_HILL_SLOPE 3.96, PBLUC_R_SQUARED 0.341, read-out: LUCIFERASE INFECTION ASSAY - IC50) is 5.27 µM.

As to `CCC(C)(C)c1ccc(Oc2ccc(NC(=O)COC(=O)C3=COCCO3)cc2)cc1`, the concentration for an effect of 90% (IC90) is greater than 10 µM. Where the note is “PBLUC_HILL_SLOPE 2.38, PBLUC_R_SQUARED 0.497, read-out: LUCIFERASE INFECTION ASSAY - IC50”, the IC50 amounted to 5.8 µM.

In the case of `CN1c2ccccc2C(C)(C)C12C=Cc1c(c(Br)cc3oc4c(c13)CCCC4)O2` (centres undefined), the IC90 is greater than 10 µM. The IC50 (HEPG2TOX_HILL_SLOPE 0.555, HEPG2TOX_R_SQUARED 0.409, PBLUC_HILL_SLOPE 0.699, PBLUC_R_SQUARED 0.384, read-out: LUCIFERASE INFECTION ASSAY - IC50) worked out at 4.21 µM.

As for `CCCCCc1ccc(C(=O)Nc2nc3ccc(C)cn3c2C(=O)NCCCC)cc1`, the IC90 is greater than 7.85 µM. The IC50 (PBLUC_HILL_SLOPE 2.82, PBLUC_R_SQUARED 0.514, read-out: LUCIFERASE INFECTION ASSAY - IC50) amounted to 4.14 µM.

With `CC(C)(C)c1ccc(-c2cc3[nH]c(-c4ccccc4)cc(=O)n3n2)cc1`, the IC90 is 3.76 µM. Moreover, the IC50 (HEPG2TOX_HILL_SLOPE 2.71, HEPG2TOX_R_SQUARED 0.618, PBLUC_HILL_SLOPE 3.36, PBLUC_R_SQUARED 0.487, read-out: LUCIFERASE INFECTION ASSAY - IC50) is 1.95 µM.

Regarding `O=C(NC1CCN(c2nccc(C(F)(F)F)n2)CC1)c1cccs1`, the IC90 came out at 4.85 µM. Under “PBLUC_HILL_SLOPE 2.13, PBLUC_R_SQUARED 0.731, read-out: LUCIFERASE INFECTION ASSAY - IC50”, the IC50 is 1.72 µM.

As to `O=C(Nc1ccc(SC(F)(F)F)cc1)Nc1ccc(-n2ccc(C(F)(F)F)n2)cc1`, the IC90 amounted to 2.69 µM. Besides, the IC50 (HEPG2TOX_HILL_SLOPE 17.7, HEPG2TOX_R_SQUARED 0.761, PBLUC_HILL_SLOPE 20.9, PBLUC_R_SQUARED 0.513, read-out: LUCIFERASE INFECTION ASSAY - IC50) came to 2.42 µM.

Consider `COc1cccc(/C=N/NC(=O)C2CCCN(C(=S)NNC3CC4C=CC3C4)CC2)c1O` (centres undefined), for which the IC90 was greater than 7.21 µM. Besides, the IC50 (PBLUC_HILL_SLOPE 0.853, PBLUC_R_SQUARED 0.602, read-out: LUCIFERASE INFECTION ASSAY - IC50) turned out to be 1.47 µM.

Turning to `CCOC(=O)c1ccc(N2C(=O)c3ccccc3C(C=NNC(=O)Cc3ccc(F)cc3)C2=O)cc1` (centres undefined), the IC90 was greater than 10 µM. Moreover, for the setting “HEPG2TOX_HILL_SLOPE 7.51, HEPG2TOX_R_SQUARED 0.875, PBLUC_HILL_SLOPE 2.71, PBLUC_R_SQUARED 0.377, read-out: LUCIFERASE INFECTION ASSAY - IC50”, the IC50 was 8.78 µM.

For `O=C1Nc2ccc(Br)cc2/C1=N\N=C\c1cc([N+](=O)[O-])ccc1OC(F)F`, the IC90 was greater than 10 µM. Moreover, the IC50 under setting [1] is greater than 10 µM.

Turning to `Cc1cc(C(C)(C)C)cc(C)c1N1C(=O)C=CC1=O`, the IC90 was greater than 12.8 µM. Further, where the note is “HEPG2TOX_HILL_SLOPE 11.2, HEPG2TOX_R_SQUARED 0.888, PBLUC_HILL_SLOPE 4.45, PBLUC_R_SQUARED 0.621, read-out: LUCIFERASE INFECTION ASSAY - IC50”, the IC50 came to 8.96 µM.

With `O=C(/C=C/c1ccc(Cl)c([N+](=O)[O-])c1)c1ccc(NC2=NCCCS2)cc1`, the IC90 is 9.95 µM. The IC50 (HEPG2TOX_HILL_SLOPE 9.82, HEPG2TOX_R_SQUARED 0.995, PBLUC_HILL_SLOPE 5.88, PBLUC_R_SQUARED 0.401, read-out: LUCIFERASE INFECTION ASSAY - IC50) was found to be 6.85 µM.

On to `N#CC(C#N)=NNc1ccc(F)c(F)c1F`, for which the IC90 was determined as 14.5 µM. In addition, the IC50 (PBLUC_HILL_SLOPE 9.99, PBLUC_R_SQUARED 0.46, read-out: LUCIFERASE INFECTION ASSAY - IC50) was found to be 11.6 µM.

For the molecule `Cc1cc(OCCN(C)C)cc2c1C1CCC3(C)C(=O)CCC3C1C=C2` (centres undefined), the IC90 was greater than 9.34 µM. Moreover, the IC50 (FFLUC_HILL_SLOPE 6.52, FFLUC_R_SQUARED 0.182, PBLUC_HILL_SLOPE 2.32, PBLUC_R_SQUARED 0.511, read-out: LUCIFERASE INFECTION ASSAY - IC50) came out at 5.67 µM.

For the molecule `O=C(/C=C/c1cn(-c2ccccc2)nc1-c1cccnc1)Nc1nc(-c2ccccn2)cs1`, the IC90 was 8.39 µM. Besides, the IC50 under setting [1] was 5.33 µM.

For `C=CCNC(=O)CN(C)S(=O)(=O)c1ccc2c(c1)OCCCO2`, the IC90 is greater than 10 µM. In addition, the IC50 under setting [1] was greater than 10 µM.

For the molecule `Cn1ccnc1C(=O)c1cc(SCC(=O)N2CCN(S(=O)(=O)c3ccc4ccccc4c3)CC2)nc2ccccc12`, the IC90 is greater than 10 µM. Besides, the IC50 under setting [1] is greater than 10 µM.

Take `Cc1nc(C2(NC(=O)COc3ccc4ccccc4c3)CCCCC2)no1`: the IC90 is greater than 10 µM. The IC50 (FFLUC_HILL_SLOPE 2.65, FFLUC_R_SQUARED 0.0928, read-out: LUCIFERASE INFECTION ASSAY - IC50) was greater than 10 µM.

For the molecule `CN(C)C(=O)CN(C)S(=O)(=O)/C=C/c1ccccc1`, the IC90 was greater than 10 µM. Further, the IC50 under setting [1] was greater than 10 µM.

Turning to `O=C(NNc1ccc(I)cc1)c1cc(Cl)cc(Cl)c1`, the IC90 stood at 2.86 µM. For the same molecule, the IC50 (HEPG2TOX_HILL_SLOPE 2.56, HEPG2TOX_R_SQUARED 0.673, PBLUC_HILL_SLOPE 20.4, PBLUC_R_SQUARED 0.213, read-out: LUCIFERASE INFECTION ASSAY - IC50) was 2.56 µM.

For the molecule `c1ccc(C2(c3ccccc3)CC2(c2ccccc2)c2ccccc2)cc1`, the concentration for an effect of 90% (IC90) stood at 8.97 µM. The IC50 (FFLUC_HILL_SLOPE 10.4, FFLUC_R_SQUARED 0.239, PBLUC_HILL_SLOPE 23.3, PBLUC_R_SQUARED 0.151, read-out: LUCIFERASE INFECTION ASSAY - IC50) stood at 8.16 µM.

Take `N#Cc1ccccc1S(=O)(=O)Oc1ccccc1C(F)(F)F`: the IC90 was greater than 10 µM. In addition, the concentration for half-maximal inhibition (IC50) under setting [1] was greater than 10 µM.
